For the assay, the target named is T1, MetNI (Escherichia coli, UniProt P30750).
T1 sequence (P30750 1-343): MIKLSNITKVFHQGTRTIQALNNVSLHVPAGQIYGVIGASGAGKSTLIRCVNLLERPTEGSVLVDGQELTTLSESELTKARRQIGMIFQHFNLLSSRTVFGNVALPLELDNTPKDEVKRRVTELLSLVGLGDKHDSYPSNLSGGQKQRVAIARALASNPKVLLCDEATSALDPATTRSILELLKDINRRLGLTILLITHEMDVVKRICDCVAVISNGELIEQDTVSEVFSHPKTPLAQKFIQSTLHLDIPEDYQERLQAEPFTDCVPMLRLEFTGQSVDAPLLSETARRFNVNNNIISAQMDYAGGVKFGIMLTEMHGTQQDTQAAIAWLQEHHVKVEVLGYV
T1 sequence (P31547 1-217 partner): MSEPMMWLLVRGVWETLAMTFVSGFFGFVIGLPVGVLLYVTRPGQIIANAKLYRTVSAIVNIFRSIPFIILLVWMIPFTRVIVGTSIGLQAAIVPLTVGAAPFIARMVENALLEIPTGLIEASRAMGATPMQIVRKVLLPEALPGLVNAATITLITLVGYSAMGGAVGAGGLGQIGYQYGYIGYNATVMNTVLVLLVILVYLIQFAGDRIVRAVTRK
Description: ATPase activity, phosphate production assay. The format is biochemical.

Results on 1 compound are retold here after article PMC2527972 (Science (New York, N.Y.), 2008).

Each structure is given as a SMILES string.

The IC50 is the concentration needed to halve the response being measured. Read a high IC50 as lower potency.

With `CSCC[C@H](N)C(=O)O` [L-methionine], the IC50 is approximately 30 µM.
